This passage reports IC50 and Ratio results from ChEMBL document CHEMBL1127168, “Synthesis and sar study of novel CCK-B antagonists” (Bioorg Med Chem Lett, 1993).

The structures appear in SMILES notation.

For assay [1], the target named is T1, Gastrin/cholecystokinin type B receptor (Mus musculus, UniProt P56481).
T1 sequence (P56481 whole entry): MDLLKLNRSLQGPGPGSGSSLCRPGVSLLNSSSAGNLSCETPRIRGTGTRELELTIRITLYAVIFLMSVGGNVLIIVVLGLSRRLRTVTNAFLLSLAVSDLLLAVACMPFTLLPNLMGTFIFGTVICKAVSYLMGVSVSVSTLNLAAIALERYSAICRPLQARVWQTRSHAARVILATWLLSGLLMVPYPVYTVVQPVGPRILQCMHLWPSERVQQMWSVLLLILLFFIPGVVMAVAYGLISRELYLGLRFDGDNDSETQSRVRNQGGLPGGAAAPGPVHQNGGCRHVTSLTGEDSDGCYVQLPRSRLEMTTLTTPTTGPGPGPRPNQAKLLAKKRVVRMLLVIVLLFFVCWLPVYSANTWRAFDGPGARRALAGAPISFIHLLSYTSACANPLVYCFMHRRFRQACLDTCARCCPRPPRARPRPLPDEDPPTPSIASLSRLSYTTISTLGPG
Description: In vitro inhibition of [125I]- Bolton Hunter CCK-8 binding to Cholecystokinin type B receptor in the mouse cerebral cortex. Type of assay: tissue-based.

For assay [2], the target named is T2, Cholecystokinin receptor type A (Rattus norvegicus, UniProt P30551).
T2 sequence (P30551 whole entry): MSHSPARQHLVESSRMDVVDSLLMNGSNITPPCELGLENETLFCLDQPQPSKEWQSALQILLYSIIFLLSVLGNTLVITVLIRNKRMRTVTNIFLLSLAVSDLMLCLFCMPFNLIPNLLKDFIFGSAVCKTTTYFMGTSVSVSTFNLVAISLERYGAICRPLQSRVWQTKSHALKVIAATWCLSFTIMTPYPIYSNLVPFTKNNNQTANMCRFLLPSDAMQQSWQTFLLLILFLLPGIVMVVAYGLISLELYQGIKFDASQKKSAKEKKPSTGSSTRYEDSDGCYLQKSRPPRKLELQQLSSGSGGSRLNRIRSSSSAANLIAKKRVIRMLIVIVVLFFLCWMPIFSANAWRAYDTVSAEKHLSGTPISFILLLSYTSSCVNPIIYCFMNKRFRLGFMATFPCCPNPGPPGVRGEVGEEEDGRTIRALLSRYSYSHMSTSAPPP
Kind of assay: In vitro inhibition of [125I]- Bolton Hunter CCK-8 to Cholecystokinin type A receptor in the rat pancreas.

Assay [3] in a line: Ratio of inhibition at CCK-A compared to CCK-B receptors.

For the compound `C[C@@](Cc1c[nH]c2ccccc12)(NC(=O)OC1[C@H]2C[C@@H]3C[C@@H](C[C@H]1C3)C2)C(=O)NCCc1ccccn1` (some centres undefined), the IC50 in assay [1] was determined as 15.5 nM; in assay [2] it was 1850 nM. Also, the Ratio in assay [3] was determined as 119.
On the same counts, the results for `COC(=O)CCCCCCN(CCc1ccccc1)C(=O)[C@](C)(Cc1c[nH]c2ccccc12)NC(=O)OC1[C@H]2C[C@@H]3C[C@@H](C[C@H]1C3)C2` (some centres undefined) are 177 nM, 6320 nM and 35.7.
For `COC(=O)CN(CCc1ccccn1)C(=O)C(C)(Cc1c[nH]c2ccccc12)NC(=O)OC1[C@H]2C[C@@H]3C[C@@H](C[C@H]1C3)C2` (single isomer, unassigned) the same measures were 90.9 nM, 2520 nM and 27.7.
In turn, `CC(Cc1c[nH]c2ccccc12)(NC(=O)OC1[C@H]2C[C@@H]3C[C@@H](C[C@H]1C3)C2)C(=O)N(CCC(=O)O)CCc1ccccc1` (single isomer, unassigned) registered an IC50 in assay [2] of 527 nM.
With `CC(Cc1c[nH]c2ccccc12)(NC(=O)OC1[C@H]2C[C@@H]3C[C@@H](C[C@H]1C3)C2)C(=O)N(CCCC(=O)O)CCc1ccccc1` (single isomer, unassigned), the results for the IC50 in assay [1] and in assay [2] were 80.2 nM and 564 nM, respectively. Further, the Ratio in assay [3] stood at 7.
As for `COC(=O)CCN(CCc1ccccc1)C(=O)C(C)(Cc1c[nH]c2ccccc12)NC(=O)OC1[C@H]2C[C@@H]3C[C@@H](C[C@H]1C3)C2` (single isomer, unassigned), the IC50 in assay [1] came out at 113 nM; in assay [2], 1980 nM. The Ratio in assay [3] is 17.5.
On the same counts, the results for `C[C@@](Cc1c[nH]c2ccccc12)(NC(=O)OC1[C@H]2C[C@@H]3C[C@@H](C[C@H]1C3)C2)C(=O)N(CCc1ccccn1)CC(=O)O` (some centres undefined) are 2.31 nM, 337 nM and 146.
On the same counts, the results for `COC(=O)CN(CCc1ccccc1)C(=O)[C@](C)(Cc1c[nH]c2ccccc12)NC(=O)OC1[C@H]2C[C@@H]3C[C@@H](C[C@H]1C3)C2` (some centres undefined) are 532 nM, 2330 nM and 4.4.
In assay [2], `C[C@@](Cc1c[nH]c2ccccc12)(NC(=O)OC1C2CC3CC(C2)CC1C3)C(=O)N[C@@H](CC(=O)O)Cc1ccccc1` (some centres undefined) yielded an IC50 of 25.5 nM.
Turning to `C[C@@](Cc1c[nH]c2ccccc12)(NC(=O)OC1[C@H]2C[C@@H]3C[C@@H](C[C@H]1C3)C2)C(=O)N(CCCCCCC(=O)O)CCc1ccccc1` (some centres undefined), the IC50 in assay [1] was 348 nM; in assay [2] it was > 1000 nM. Besides, in assay [3], the Ratio is > 2.9.
As to `CC(Cc1c[nH]c2ccccc12)(NC(=O)OC1[C@H]2C[C@@H]3C[C@@H](C[C@H]1C3)C2)C(=O)N(CCc1ccccc1)CC(=O)O` (single isomer, unassigned), in assay [2], the IC50 turned out to be 1080 nM.
As to `C[C@@](Cc1c[nH]c2ccccc12)(NC(=O)OC1[C@H]2C[C@@H]3C[C@@H](C[C@H]1C3)C2)C(=O)N(CCc1ccccc1)CC(=O)O` (some centres undefined), the IC50 in assay [2] is > 1000 nM.
Same read-out and setting: to `C[C@@](Cc1c[nH]c2ccccc12)(NC(=O)OC1[C@H]2C[C@@H]3C[C@@H](C[C@H]1C3)C2)C(=O)N(CCC(=O)O)CCc1ccccc1` (some centres undefined) belongs 672 nM.
